Source: article PMC9926234, “Iterative computational design and crystallographic screening identifies potent inhibitors targeting the Nsp3 macrodomain of SARS-CoV-2” (Proceedings of the National Academy of Sciences of the …, 2023)
Values joined by “and” are separate entries in the source; they are usually repeats but may differ in a detail not shown here. Equal values may be shown once. Read-outs that look alike come from different tables or passages of the source.

Experiments:
SARS-CoV-2 NSP3 Mac1 [1] = target: T1, SARS-CoV-2 NSP3 Mac1 (Severe acute respiratory syndrome coronavirus 2, UniProt P0DTD1); format: binding; details: for Modeled?: ligand modeled in the crystal structure; for Refined occupancy: ligand occupancy after refinement (phenix.refine); for HIT*: true hit = binding in crystallographic soaking or the HTRF-based binding assay
SARS-CoV-2 NSP3 Mac1 [2] = target: T1, SARS-CoV-2 NSP3 Mac1; format: binding; design: contains a conserved macrodomain enzyme (Mac1); details: for Spearman est (compound concentration vs apparent Tm): DSF dose responsiveness, 1 µM nsp3 mac1, adj p given; for DSF max dTma: maximal thermal upshift
Protocol: DSF and associated compound handling was performed as described ([12]), with 5 µM dye “Fluorescent Yellow” (Jacquard iDye Cat #JID1405) used in place of SYPRO Orange. Compounds were tested in triplicate, at seven concentrations in two-fold serial dilutions, at a top concentration of either 1,000 or 100 μM. To minimize experimental noise arising from plate location-based effects on Tma, all concentrations and replicates for each compound were tested within a single region of the microtiter plates, including a DMSO-only control from which ΔTmas were calculated for that compound. […] For each compound, to determine statistical significance of the dose responsive thermal shift, the Spearman’s coefficient was calculated between compound concentration and ΔTma.

[3] = PanDDA 1-BDC value of the event, crystal soak, compound concentration 100 mM, per dataset
[4] = PanDDA event map, 1 minus background density correction, crystal soaking of Mac1
[5] = crystal soak, compound concentration 100 mM, per dataset

Row | Structure (SMILES) | Spearman est (compound concentration vs apparent Tm) (SARS-CoV-2 NSP3 Mac1 [2]) | DSF max dTma (SARS-CoV-2 NSP3 Mac1 [2]) | other results
1 | Cc1nnc2n1CC(C(=O)O)N(C(=O)c1ccc(NC(=O)NC3CC3)cc1)C2 (stereo not drawn) [8539_0037] | 0.16 | 2.36 ˚C | 1-BDC (SARS-CoV-2 NSP3 Mac1 [1]; [3]): 0.4; 1-BDC (SARS-CoV-2 NSP3 Mac1 [1]; [4]): 0.4; PanDDA hit? (SARS-CoV-2 NSP3 Mac1 [1]; [5]): TRUE; Modeled? (SARS-CoV-2 NSP3 Mac1 [1]; [5]): TRUE; Refined occupancy (SARS-CoV-2 NSP3 Mac1 [1]; crystal soaking of Mac1): 80; HIT* (SARS-CoV-2 NSP3 Mac1 [1]): Y
2 | O=C(Nc1ccc(C(=O)N2CC(C(=O)O)Cc3ccccc32)cc1)NC1CC1 (stereo not drawn) [8539_0038] | 0.19 | 0.98 ˚C | 1-BDC (SARS-CoV-2 NSP3 Mac1 [1]; [3]): 0.06; 1-BDC (SARS-CoV-2 NSP3 Mac1 [1]; [4]): 0.06; PanDDA hit? (SARS-CoV-2 NSP3 Mac1 [1]; [5]): TRUE; Modeled? (SARS-CoV-2 NSP3 Mac1 [1]; [5]): TRUE; Refined occupancy (SARS-CoV-2 NSP3 Mac1 [1]; crystal soaking of Mac1): 12; HIT* (SARS-CoV-2 NSP3 Mac1 [1]): Y
3 | Cn1nc(O)c2c1CN(C(=O)c1cc(O)cc(=O)o1)CC2 [FRESH00002410346] | −0.34 | 0.09 ˚C | 1-BDC (SARS-CoV-2 NSP3 Mac1 [1]; [3]): 0.07; 1-BDC (SARS-CoV-2 NSP3 Mac1 [1]; [4]): 0.07; PanDDA hit? (SARS-CoV-2 NSP3 Mac1 [1]; [5]): TRUE; Modeled? (SARS-CoV-2 NSP3 Mac1 [1]; [5]): TRUE; Refined occupancy (SARS-CoV-2 NSP3 Mac1 [1]; crystal soaking of Mac1): 14; HIT* (SARS-CoV-2 NSP3 Mac1 [1]): Y
4 | Cc1cc(S(=O)(=O)Nc2cnc3[nH]ccc3c2)n(C2CCCC2)n1 [FRESH00010608284] | −0.51 | 0.06 ˚C | 1-BDC (SARS-CoV-2 NSP3 Mac1 [1]; [4]): 0.15; Refined occupancy (SARS-CoV-2 NSP3 Mac1 [1]; crystal soaking of Mac1): 30; HIT* (SARS-CoV-2 NSP3 Mac1 [1]): Y
5 | CC1(C)CCC(C(=O)O)CN1C(=O)c1ncnc2[nH]ccc12 (stereo not drawn) [FRESH00012962804] | 0.54 | 0.62 ˚C | 1-BDC (SARS-CoV-2 NSP3 Mac1 [1]; PanDDA event map, 1-BDC of the hit dataset, crystal soak, compound concentration 100 mM, listed as F2804): 0.32 and 0.28; 1-BDC (SARS-CoV-2 NSP3 Mac1 [1]; [4]): 0.22; Refined occupancy (SARS-CoV-2 NSP3 Mac1 [1]; crystal soaking of Mac1): 44; HIT* (SARS-CoV-2 NSP3 Mac1 [1]): Y
6 | Cc1ccc(-c2noc(CCCSC3CCCNC3=O)n2)cc1F (stereo not drawn) [ZINC000359061121] | 0.71 | – | –
7 | Cc1ccc(NS(=O)(=O)c2ccc(C(F)(F)F)cn2)c(O)n1 [ZINC000359659274] | 0.61 | 0.65 ˚C | –
8 | Cc1n[nH]c2ncc(CN3CC(C)Oc4c(F)cccc43)cc12 (stereo not drawn) [ZINC000361138637] | 0.07 | – | –
9 | O=C(c1c(F)ccc(O)c1F)N1CCC(Oc2cccc(F)c2)C1 (stereo not drawn) [ZINC000368135547] | −0.88 | – | –
10 | Cc1ccc(C(=O)N2CC[C@H](Oc3ccccc3)C2)cc1O [ZINC000371562024] | −0.6 | – | –
11 | COC(=O)CC1CN(c2ncnc3[nH]ccc23)c2ccccc21 (stereo not drawn) [ZINC000371804911] | 0.77 | – | –
12 | CC(C(=O)N1CCCC1c1nc(C(N)=O)no1)c1cccc(F)c1 (stereo not drawn) [ZINC000373034135] | 0.29 | – | –
13 | CN(c1cc(NC2CC2)ncn1)C1CCCN(c2cccnn2)C1 (stereo not drawn) [ZINC000413143167] | −0.41 | – | –
14 | CN(Cc1cccc(O)c1)C(=O)Cc1ccncc1 [ZINC000542791186] | 0.23 | – | –
15 | NC(=O)c1ccc(Cc2noc(CCc3ccoc3)n2)cc1 [ZINC000546336511] | −0.79 | – | –
16 | Nc1ncnc2c1ncn2CCCc1ccsc1 [ZINC000570815972] | 0.79 | – | –
17 | CC1c2ccc(F)cc2CCN1C(=O)c1cccc(O)c1 (stereo not drawn) [ZINC000679635167] | −0.95 | – | –
18 | O=C(Cc1ccc2c(c1)CCO2)OCc1cc2ccccc2[nH]c1=O [ZINC000733430132] | −0.12 | – | –
19 | Cc1cc(-n2cncn2)ccc1C(=O)OCC1OCCc2ccccc21 (stereo not drawn) [ZINC000745413896] | 0.55 | – | –
20 | CCc1noc(C(C)OC(=O)c2cccc3[nH]c(=O)oc23)n1 (stereo not drawn) [ZINC000751938095] | −0.41 | 0.13 ˚C | –

Row | Structure (SMILES) | Spearman est (compound concentration vs apparent Tm) (SARS-CoV-2 NSP3 Mac1 [2]) | DSF max dTma (SARS-CoV-2 NSP3 Mac1 [2]) | other results
21 | Cc1ccc(CC(=O)OCc2noc(C3CC3)n2)cc1O [ZINC000772152995] | 0.02 | – | –
22 | O=C(COC(=O)c1ccc2nsnc2c1)c1ccccc1 [ZINC000779122380] | 0.81 | – | –
23 | N#Cc1cccc(-n2ccc(C(=O)OCc3cccnc3)n2)c1 [ZINC000798346395] | 0.61 | – | –
24 | Nc1cc(-c2noc(CCn3cccn3)n2)ncn1 [ZINC000820965086] | 0.58 | – | –
25 | O=C(Cc1ccc(-n2cccn2)cc1)OCC1CCCNC1=O (stereo not drawn) [ZINC000835985505] | −0.14 | – | –
26 | CS(=O)(=O)C1CCCN(c2ncnc3[nH]c(Cl)cc23)C1 (stereo not drawn) [ZINC000865679550] | 0.71 | – | –
27 | Clc1cc2c(N3CCCC(c4cccnc4)C3)ncnc2[nH]1 (stereo not drawn) [ZINC000866018680] | 0.2 | – | –
28 | CC1CCc2n[nH]cc2C1C(=O)N(C)OCc1ccccc1 (stereo not drawn) [ZINC000879258074] | 0.45 | – | –
29 | Cc1csc(=Nc2ccccc2)n1Cc1nnc2n1CCNC2=O [ZINC000881775356] | 0.59 | – | –
30 | CN(Cc1nnc2c(=O)[nH]ccn12)c1nccc(C(F)(F)F)n1 [ZINC000882897665] | 0.38 | – | –
31 | CN(Cc1nnc2c(=O)[nH]ccn12)c1cc(Cl)nc(C2CC2)n1 [ZINC000882897766] | −0.19 | – | –
32 | CC1C(=O)CCCN1C(=O)c1ccnc2[nH]cnc12 (stereo not drawn) [ZINC000885048835] | 0.23 | 0.16 ˚C | –
33 | CNc1cc(N2CCCC(c3nc(C)no3)C2)ncn1 (stereo not drawn) [ZINC000891943247] | 0.24 | 0.27 ˚C | –
34 | Cc1ccccc1CC(C)c1nc(-c2cc(N)ncn2)no1 (stereo not drawn) [ZINC000896334066] | 0.77 | – | –
35 | c1csc(CC2CCN(c3ncnc4[nH]ccc34)C2)n1 (stereo not drawn) [ZINC000897286891] | −0.05 | – | –
36 | CNc1cc(-c2noc(CN3CCCC3=O)n2)ncn1 [ZINC000904236028] | −0.56 | – | –
37 | Cc1nc(Cc2noc(-c3ncnc4[nH]ccc34)n2)no1 [ZINC000904346960] | 0.21 | 0.27 ˚C | –
38 | CC(c1ccc(Cl)c(Cl)c1)S(=O)(=O)Cc1cn[nH]c1 (stereo not drawn) [ZINC000905245728] | −0.2 | – | –
39 | CN(C(=O)CN1CCNC(=O)C1)c1ccc(-c2nccs2)cc1 [ZINC000910053700] | −0.73 | – | –
40 | Cc1nc2c(C(=O)OCc3ccnc(N(C)C)c3)ccnc2[nH]1 [ZINC000924094620] | 0.62 | – | –

Row | Structure (SMILES) | Spearman est (compound concentration vs apparent Tm) (SARS-CoV-2 NSP3 Mac1 [2]) | DSF max dTma (SARS-CoV-2 NSP3 Mac1 [2]) | other results
41 | Cn1cnc(C(=O)NCC2CCN2C(=O)c2ncnc3[nH]ccc23)c1 (stereo not drawn) [ZINC000949397098] | 0.3 | 0.1 ˚C | –
42 | CN1C(=O)[C@H]2CN(C(=O)c3ncnc4[nH]ccc34)C[C@H]2C1=O [ZINC001119059028] | −0.58 | 0 ˚C | –
43 | Nc1nc(N)c2ncn(C3CN(C(=O)Cc4cccnc4)C3)c2n1 [ZINC001156036512] | 0.06 | 0.61 ˚C | –
44 | NC(=O)c1ccc(CCSc2cccc(F)c2)cc1 [ZINC001165768885] | −0.73 | – | –
45 | Cc1ccccc1CNc1ncnc(-c2ccccc2)n1 [ZINC001184571635] | 0.82 | – | –
46 | Clc1cc2c(N3CCCC(c4nnc[nH]4)C3)ncnc2[nH]1 (stereo not drawn) [ZINC001187497156] | 0.32 | – | –
47 | CNS(=O)(=O)c1cccc(-c2ncnc3[nH]c4ccccc4c23)c1 [ZINC001240776402] | −0.29 | 0.27 ˚C | –
48 | O=C1CCCN1Cc1cccc(N2C(=O)N[C@@H](CO)C2=O)c1 [ZINC001320848619] | 0.18 | 0.2 ˚C | –
49 | O=C(c1ncnc2[nH]ccc12)N1CC(n2cncn2)C1 [ZINC001327823432] | 0.54 | 0.66 ˚C | –
50 | O=C(c1ncnc2[nH]ccc12)N1CC(n2ccnn2)C1 [ZINC001335091110] | −0.36 | 0.04 ˚C | –
51 | CN(Cc1ncc(Cl)n1C)c1ncnc(N)n1 [ZINC001337833291] | 0.82 | – | –
52 | CN(Cc1nnc2c(=O)[nH]ccn12)C(=O)COC1CC1 [ZINC001364630288] | 0.73 | – | –
53 | Nc1ncc(S(=O)(=O)N2CCC2c2cccc(F)c2)cn1 (stereo not drawn) [ZINC001365141527] | −0.66 | 0 ˚C | –
54 | CC(C(=O)N1CC(C(N)=O)C1)n1cnc2c(N)ncnc21 (stereo not drawn) [ZINC001434309614] | 0.08 | 0.26 ˚C | –
55 | O=c1[nH]ccn2c(CSc3nc4ccccc4s3)nnc12 [ZINC001458791015] | 0.66 | – | –
56 | O=c1[nH]nc(C2CCCN(c3ncnc4[nH]c(Cl)cc34)C2)o1 (stereo not drawn) [ZINC001559178387] | −0.22 | – | –
57 | Nc1ncnc(SCCc2cccc(Cl)c2Cl)n1 [ZINC001641481086] | 0.6 | – | –
58 | Cc1cc(C)nc(CSc2nnc3c(=O)[nH]c4ccccc4n23)c1 [ZINC001652467570] | 0.44 | – | –
